Measured values taken from US20240317756A1, “INHIBITORS OF BRUTON'S TYROSINE KINASE” (Pharmacyclics LLC, priority 2006, published 2024).
pIC50: −log10 of the molar value.

What was measured:
[1] = molecular target: FGR (Homo sapiens (Human), UniProt P09769); assay: in vitro HotSpot kinase assay, FGR; type: biochemical; conditions: purified enzymes, 33P-ATP, 1 uM ATP
[2] = molecular target: BLK (Homo sapiens (Human), UniProt P51451); assay: in vitro HotSpot kinase assay, BLK; type: biochemical; conditions: purified enzymes, 33P-ATP, 1 uM ATP
[3] = molecular target: FER (Homo sapiens (Human), UniProt P16591); assay: in vitro HotSpot kinase assay, FER; type: biochemical; conditions: purified enzymes, 33P-ATP, 1 uM ATP
[4] = molecular target: Lyn (Homo sapiens (Human), UniProt P07948); assay: in vitro HotSpot kinase assay, Lyn; type: biochemical; conditions: purified enzymes, 33P-ATP, 1 uM ATP
[5] = test system: collagen-induced arthritis; assay: collagen-induced arthritis in the mouse; type: in vivo, Male DBA/lOlaHsd mice; conditions: 12.5 mg/kg or 50 mg/kg each day of an 11-day period
Protocol: […]. […] Dexamethasone was included as a positive control. Paw inflammation was scored from 0-5 and averaged across all paws from all animals for each group in the study.
. After paw inflammation was established, animals were randomized and Compound lor vehicle was dosed orally once per day starting at day 1. Paw inflammation was scored from 0-5 and averaged across all paws from all animals for each group in the study. […] Dexamethasone was included as a positive control.

[6] = molecular target: Brk (Homo sapiens (Human), UniProt Q13882); assay: in vitro HotSpot kinase assay, Brk; type: biochemical; conditions: purified enzymes, 33P-ATP, 1 uM ATP
[7] = molecular target: Fyn (Homo sapiens (Human), UniProt P06241); assay: in vitro HotSpot kinase assay, Fyn; type: biochemical; conditions: purified enzymes, 33P-ATP, 1 uM ATP
[8] = molecular target: HER4 (Homo sapiens (Human), UniProt Q15303); assay: in vitro HotSpot kinase assay, HER4; type: biochemical; conditions: purified enzymes, 33P-ATP, 1 uM ATP
From the text: (§1) Table 1 is a table showing the degree of inhibition of a panel of kinases for two example compounds. […] Thus, subtle modifications in the linker moiety and the Michael acceptor moiety are important for the design of selective ACK inhibitors.

[9] = molecular target: SYK (Homo sapiens (Human), UniProt P43405); assay: in vitro HotSpot kinase assay, SYK; type: biochemical; conditions: purified enzymes, 33P-ATP, 1 uM ATP
From the text: as §1

[10] = molecular target: TEC (Homo sapiens (Human), UniProt P42680); assay: in vitro HotSpot kinase assay, TEC; type: biochemical; conditions: purified enzymes, 33P-ATP, 1 uM ATP
[11] = molecular target: CSK (Homo sapiens (Human), UniProt P41240); assay: in vitro HotSpot kinase assay, CSK; type: biochemical; conditions: purified enzymes, 33P-ATP, 1 uM ATP
[12] = molecular target: C-src (Homo sapiens (Human), UniProt P12931); assay: in vitro HotSpot kinase assay, C-src; type: biochemical; conditions: purified enzymes, 33P-ATP, 1 uM ATP
From the text: as §1

[13] = molecular target: HER2 (Homo sapiens (Human), UniProt P04626); assay: in vitro HotSpot kinase assay, HER2; type: biochemical; conditions: purified enzymes, 33P-ATP, 1 uM ATP
[14] = molecular target: ABL (Homo sapiens (Human), UniProt P00519); assay: in vitro HotSpot kinase assay, ABL; type: biochemical; conditions: purified enzymes, 33P-ATP, 1 uM ATP
[15] = molecular target: YES (Homo sapiens (Human), UniProt P07947); assay: in vitro HotSpot kinase assay, YES; type: biochemical; conditions: purified enzymes, 33P-ATP, 1 uM ATP
[16] = test system: lymphoma cell line DOHH2; assay: DOHH2 cell proliferation assay (Alamar Blue); type: cell-based
Protocol: After 72 hours, cell number was measured using Alamar Blue using manufacturer's protocol. A dilution series of untreated cells was run in parallel to verify that the Alamar Blue assay reliably reflected cell number and that growth conditions were not limiting. […] GI50 values were confirmed in two or more separate experiments for each cell line.
Analogs are generated that are Btk inhibitors and that are cytotoxic to the lymphoma cell line DOHH2. For the DOHH2 cell proliferation assay, cells were seeded in 96-well plates in standard growth media (RPMI+10% fetal calf serum) and compounds were added in a 9-point dilution series ranging from 10 uM to 0.04 uM with DMSO at 0.1% final concentration in all wells. After 72 hours, cell number was measured using Alamar Blue using manufacturer's protocol. A dilution series of untreated cells was run in parallel to verify that the Alamar Blue assay reliably reflected cell number and that growth conditions were not limiting.

[17] = molecular target: BTK (Homo sapiens (Human), UniProt Q06187); assay: in vitro HotSpot kinase assay, BTK; type: biochemical; conditions: Table 2, 1 uM ATP, one hour incubation with inhibitor
[18] = molecular target: EGFR (Homo sapiens (Human), UniProt P00533); assay: in vitro HotSpot kinase assay, EGFR; type: biochemical; conditions: Table 2, 1 uM ATP, one hour incubation with inhibitor
[19] = plasma concentrations after oral dosing of rats; type: in vivo; conditions: single oral dose 8 mg/kg each in combination
Protocol: Blood samples were collected at 0.0833 (5 minutes), 0.333 (20 minutes), 1, 3, 6, 9, and 24 hours post-dosing from orally dosed rats.
Male jugular vein cannulated rats were administered a single dose of all test compounds at 8 mg/kg each, in combination by oral gavage. Dose volumes were adjusted based on body weight data collected immediately prior to dosing. Blood samples were collected at 0.0833 (5 minutes), 0.333 (20 minutes), 1, 3, 6, 9, and 24 hours post-dosing from orally dosed rats. The samples were collected into plasma separator Microtainer tubes with anticoagulant (lithium heparin). Plasma samples were prepared by centrifugation (5 min at 5000×g), and at least 100 μL were transferred to storage tubes and stored frozen at −80° C. Plasma samples were thawed and 75 uL aliquots were transferred to centrifuge tubes to which 10 μL aliquots of internal standard solution (1 μg/mL) were added. The samples were not diluted with blank plasma prior to further processing. Soluble proteins were precipitated by the addition of 200 μL of acetonitrile, followed by centrifugation (20 min at 16,000×g). The samples were evaporated to dryness and reconstituted in 200 μL of water containing 0.2% formic acid and 10% methanol. All samples were loaded onto an autosampler maintained at 6° C. and evaluated for concentrations of test compounds using LC-MS/MS.

[20] = test system: Tec family kinases, including Btk, and Src family kinases; assay: in vitro profiling against a panel of greater than 100 kinases; type: biochemical
From the text: By way of example only and in some embodiments, the observed potency, selectivity, and cell permeability of compounds such as Compound 2 are appropriate to incorporate these molecules into a Kinase-targeted, activity based probe that allows direct visualization of Kinase activity in intact cells. […] Without limiting the scope of the compositions and methods described herein, it is postulated that the structural basis for the selectivity is covalent modification of a non-catalytic cysteine residue (Cys 481 in Btk) that is conserved in the ATP binding pocket of the Tec family and several other kinases.

[21] = test system: lymphoma cell line WSU-DLCL2; assay: BCR cross-linking by anti-IgG in WSU-DLCL2; type: cell-based; conditions: WSU-DLCL2, anti-IgG 30 ug/ml
[22] = test system: Egr-1; assay: expression of ERK transcriptional target Egr-1; type: cell-based; conditions: 1 uM
[23] = test system: pERK and BCR pathway phosphorylation in DOHH2 cells; assay: BCR signal transduction pathway phosphorylation, DOHH2; type: cell-based; conditions: unstimulated DOHH2 cells; read-out: IC50 for decrease of pERK levels
From the text: To identify biomarkers that correlate with response to Compound 1, phosphorylation events in the BCR signal transduction pathway were investigated.
However, when we examined basal phosphorylation levels, we found higher basal phosphorylation in DOHH2 compared to Ramos, with phospho-ERK in particular indicating higher levels of basal or tonic signaling in DOHH2.

[24] = glutathione binding assay; conditions: 5 mM glutathione, 10 μM Btk inhibitor, room temperature, HPLC
Protocol: A calculated value (e.g (1/Btk IC50)/Glutathione conjugation rate) as shown in the Table 2) is used to compare compounds for their ratio between potency at inhibiting their target and their non-specific binding to other SH groups, such as those in glutathione. […] Calculated ratios such as these are used to quantitatively compare different compounds and select compounds for further study.
For the glutathione binding assays, 5 mM glutathione, 10 μM Btk inhibitor in DMSO (10 μL) and 6 equivalents of N′N′ Diisopropyl ethyl amine were combined in 1 mL potassium phosphate buffer. The mixture was incubated for 0, 15, 60 minutes at room temperature and the reaction was stopped with 10 equivalents of formic acid. 50 μL of each reaction mixture was injected on HPLC (Mobil Phase A: 0.2% formic acid in water, Mobile Phase B: 0.2% formic acid in acetonitrile, HPLC Column: Metasil Basic 3μ, 150×4.6 mm, 10% B, Gradient: 10% to 90% B, Detection: UV/Vis […]). Rate of reaction was reported as nmole GSH conjugate conversion per minute from the normalized ratio for area under the curve from HPLC chromatograms for both GSH conjugate and the parent.

[25] = molecular target: JAK3 (Homo sapiens (Human), UniProt P52333); assay: in vitro HotSpot kinase assay, JAK3; type: biochemical; conditions: Table 2, 1 uM ATP, one hour incubation with inhibitor
[26] = molecular target: LCK (Homo sapiens (Human), UniProt P06239); assay: in vitro HotSpot kinase assay, LCK; type: biochemical; conditions: Table 2, 1 uM ATP, one hour incubation with inhibitor
[27] = molecular target: ITK (Homo sapiens (Human), UniProt Q08881); assay: in vitro HotSpot kinase assay, ITK; type: biochemical; conditions: Table 2, 1 uM ATP, one hour incubation with inhibitor
Sequence of ITK (Q08881 whole entry, species assumed): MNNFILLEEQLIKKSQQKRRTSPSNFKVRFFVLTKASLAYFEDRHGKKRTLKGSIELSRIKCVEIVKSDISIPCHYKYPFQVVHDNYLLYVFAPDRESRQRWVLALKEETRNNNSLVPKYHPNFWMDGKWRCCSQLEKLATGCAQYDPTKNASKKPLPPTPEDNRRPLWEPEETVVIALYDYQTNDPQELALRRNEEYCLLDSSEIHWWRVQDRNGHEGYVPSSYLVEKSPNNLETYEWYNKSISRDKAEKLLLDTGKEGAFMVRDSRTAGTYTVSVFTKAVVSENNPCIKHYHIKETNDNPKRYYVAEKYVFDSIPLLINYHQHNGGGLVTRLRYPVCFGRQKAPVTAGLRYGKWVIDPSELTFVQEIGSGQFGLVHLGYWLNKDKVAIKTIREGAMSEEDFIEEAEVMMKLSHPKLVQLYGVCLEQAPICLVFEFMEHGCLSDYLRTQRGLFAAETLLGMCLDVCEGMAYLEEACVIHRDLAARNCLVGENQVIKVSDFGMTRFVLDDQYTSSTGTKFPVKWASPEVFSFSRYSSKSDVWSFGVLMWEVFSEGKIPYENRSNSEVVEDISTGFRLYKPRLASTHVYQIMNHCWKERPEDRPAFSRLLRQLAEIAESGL

Sequence of BTK (Q06187 whole entry): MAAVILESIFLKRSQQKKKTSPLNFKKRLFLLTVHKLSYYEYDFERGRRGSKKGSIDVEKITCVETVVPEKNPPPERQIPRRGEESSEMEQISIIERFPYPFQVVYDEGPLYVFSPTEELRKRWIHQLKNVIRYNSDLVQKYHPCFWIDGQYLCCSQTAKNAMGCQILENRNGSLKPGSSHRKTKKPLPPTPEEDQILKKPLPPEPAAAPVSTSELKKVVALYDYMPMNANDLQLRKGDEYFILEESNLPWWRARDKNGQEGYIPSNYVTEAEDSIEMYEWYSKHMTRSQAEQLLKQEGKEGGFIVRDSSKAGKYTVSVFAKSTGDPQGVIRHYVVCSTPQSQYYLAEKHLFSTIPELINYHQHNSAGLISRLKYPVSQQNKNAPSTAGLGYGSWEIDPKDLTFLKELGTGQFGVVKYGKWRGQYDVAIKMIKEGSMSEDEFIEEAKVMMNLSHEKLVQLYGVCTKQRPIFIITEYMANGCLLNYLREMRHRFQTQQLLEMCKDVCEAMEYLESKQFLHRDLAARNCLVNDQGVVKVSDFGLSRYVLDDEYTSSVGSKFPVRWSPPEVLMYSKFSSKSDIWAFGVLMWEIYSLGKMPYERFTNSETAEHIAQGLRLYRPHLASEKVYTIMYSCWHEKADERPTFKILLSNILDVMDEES
Sequence of EGFR (P00533 25-1210, species assumed): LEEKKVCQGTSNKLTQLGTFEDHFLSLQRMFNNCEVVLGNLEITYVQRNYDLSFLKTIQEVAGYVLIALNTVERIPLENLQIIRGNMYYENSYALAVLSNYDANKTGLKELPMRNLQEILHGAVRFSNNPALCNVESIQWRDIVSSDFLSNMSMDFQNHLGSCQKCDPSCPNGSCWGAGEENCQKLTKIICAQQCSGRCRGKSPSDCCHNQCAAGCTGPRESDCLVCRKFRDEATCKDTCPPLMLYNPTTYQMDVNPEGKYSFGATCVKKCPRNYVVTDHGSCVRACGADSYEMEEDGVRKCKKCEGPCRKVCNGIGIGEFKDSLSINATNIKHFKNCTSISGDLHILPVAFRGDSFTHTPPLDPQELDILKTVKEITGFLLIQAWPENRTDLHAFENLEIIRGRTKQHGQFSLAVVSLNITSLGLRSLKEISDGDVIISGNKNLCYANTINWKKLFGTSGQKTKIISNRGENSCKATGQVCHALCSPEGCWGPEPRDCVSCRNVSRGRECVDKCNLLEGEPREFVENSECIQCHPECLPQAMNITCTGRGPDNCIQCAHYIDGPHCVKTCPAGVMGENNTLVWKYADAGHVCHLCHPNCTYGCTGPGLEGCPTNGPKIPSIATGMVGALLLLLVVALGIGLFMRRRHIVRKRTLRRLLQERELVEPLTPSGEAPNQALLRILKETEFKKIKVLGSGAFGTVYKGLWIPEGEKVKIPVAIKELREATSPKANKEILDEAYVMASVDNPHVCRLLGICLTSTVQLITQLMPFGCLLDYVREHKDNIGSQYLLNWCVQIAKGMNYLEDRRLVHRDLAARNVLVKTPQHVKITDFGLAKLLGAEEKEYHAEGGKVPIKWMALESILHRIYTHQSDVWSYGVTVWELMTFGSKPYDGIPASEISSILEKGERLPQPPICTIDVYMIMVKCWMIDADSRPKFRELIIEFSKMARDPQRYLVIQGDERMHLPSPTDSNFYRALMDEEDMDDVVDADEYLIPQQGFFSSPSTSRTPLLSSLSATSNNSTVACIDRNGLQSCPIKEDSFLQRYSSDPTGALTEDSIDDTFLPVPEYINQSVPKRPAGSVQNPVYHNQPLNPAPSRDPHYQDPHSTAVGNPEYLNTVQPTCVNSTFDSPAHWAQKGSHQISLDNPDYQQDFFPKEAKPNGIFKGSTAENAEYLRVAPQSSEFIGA
Sequence of JAK3 (P52333 whole entry, species assumed): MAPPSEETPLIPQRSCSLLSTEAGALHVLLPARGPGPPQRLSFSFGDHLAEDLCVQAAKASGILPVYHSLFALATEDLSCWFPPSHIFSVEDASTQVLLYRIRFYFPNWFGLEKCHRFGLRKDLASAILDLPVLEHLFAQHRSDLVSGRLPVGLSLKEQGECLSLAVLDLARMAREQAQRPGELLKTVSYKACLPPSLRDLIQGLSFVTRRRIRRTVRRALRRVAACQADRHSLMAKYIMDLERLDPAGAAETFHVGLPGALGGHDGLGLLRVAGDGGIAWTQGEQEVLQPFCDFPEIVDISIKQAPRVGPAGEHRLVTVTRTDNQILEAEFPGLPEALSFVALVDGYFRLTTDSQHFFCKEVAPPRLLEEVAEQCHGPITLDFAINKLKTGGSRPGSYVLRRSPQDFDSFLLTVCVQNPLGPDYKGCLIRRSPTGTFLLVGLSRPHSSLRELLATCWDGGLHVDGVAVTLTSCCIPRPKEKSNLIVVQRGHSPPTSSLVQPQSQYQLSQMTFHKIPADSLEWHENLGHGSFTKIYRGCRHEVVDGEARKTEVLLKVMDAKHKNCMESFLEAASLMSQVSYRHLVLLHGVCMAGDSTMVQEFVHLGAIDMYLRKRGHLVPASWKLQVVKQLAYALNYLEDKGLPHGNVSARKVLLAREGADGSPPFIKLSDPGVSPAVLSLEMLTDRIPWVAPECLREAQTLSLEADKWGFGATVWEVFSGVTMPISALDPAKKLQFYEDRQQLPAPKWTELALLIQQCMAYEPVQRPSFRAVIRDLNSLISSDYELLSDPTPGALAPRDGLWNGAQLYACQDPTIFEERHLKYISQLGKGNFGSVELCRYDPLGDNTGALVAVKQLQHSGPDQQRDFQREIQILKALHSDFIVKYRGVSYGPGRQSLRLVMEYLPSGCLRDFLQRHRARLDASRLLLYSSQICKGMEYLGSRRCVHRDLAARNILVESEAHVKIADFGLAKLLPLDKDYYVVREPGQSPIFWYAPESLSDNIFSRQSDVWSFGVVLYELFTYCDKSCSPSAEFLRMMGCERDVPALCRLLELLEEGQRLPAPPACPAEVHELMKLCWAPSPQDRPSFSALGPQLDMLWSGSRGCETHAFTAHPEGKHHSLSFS
Sequence of LCK (P06239 whole entry, species assumed): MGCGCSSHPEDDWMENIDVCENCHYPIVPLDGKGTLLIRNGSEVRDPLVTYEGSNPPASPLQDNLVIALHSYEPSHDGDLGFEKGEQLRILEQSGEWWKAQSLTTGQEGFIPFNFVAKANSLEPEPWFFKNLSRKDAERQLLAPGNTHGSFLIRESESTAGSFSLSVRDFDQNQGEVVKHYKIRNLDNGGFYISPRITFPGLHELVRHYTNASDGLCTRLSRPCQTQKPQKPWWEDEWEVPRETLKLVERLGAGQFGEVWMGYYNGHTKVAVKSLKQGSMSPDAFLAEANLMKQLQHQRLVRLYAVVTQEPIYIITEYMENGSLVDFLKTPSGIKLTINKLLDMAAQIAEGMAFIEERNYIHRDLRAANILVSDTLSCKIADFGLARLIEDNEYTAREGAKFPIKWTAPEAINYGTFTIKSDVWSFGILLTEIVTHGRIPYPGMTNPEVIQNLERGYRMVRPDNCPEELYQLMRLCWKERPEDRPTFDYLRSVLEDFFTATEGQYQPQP
Sequence of FER (P16591 whole entry, species assumed): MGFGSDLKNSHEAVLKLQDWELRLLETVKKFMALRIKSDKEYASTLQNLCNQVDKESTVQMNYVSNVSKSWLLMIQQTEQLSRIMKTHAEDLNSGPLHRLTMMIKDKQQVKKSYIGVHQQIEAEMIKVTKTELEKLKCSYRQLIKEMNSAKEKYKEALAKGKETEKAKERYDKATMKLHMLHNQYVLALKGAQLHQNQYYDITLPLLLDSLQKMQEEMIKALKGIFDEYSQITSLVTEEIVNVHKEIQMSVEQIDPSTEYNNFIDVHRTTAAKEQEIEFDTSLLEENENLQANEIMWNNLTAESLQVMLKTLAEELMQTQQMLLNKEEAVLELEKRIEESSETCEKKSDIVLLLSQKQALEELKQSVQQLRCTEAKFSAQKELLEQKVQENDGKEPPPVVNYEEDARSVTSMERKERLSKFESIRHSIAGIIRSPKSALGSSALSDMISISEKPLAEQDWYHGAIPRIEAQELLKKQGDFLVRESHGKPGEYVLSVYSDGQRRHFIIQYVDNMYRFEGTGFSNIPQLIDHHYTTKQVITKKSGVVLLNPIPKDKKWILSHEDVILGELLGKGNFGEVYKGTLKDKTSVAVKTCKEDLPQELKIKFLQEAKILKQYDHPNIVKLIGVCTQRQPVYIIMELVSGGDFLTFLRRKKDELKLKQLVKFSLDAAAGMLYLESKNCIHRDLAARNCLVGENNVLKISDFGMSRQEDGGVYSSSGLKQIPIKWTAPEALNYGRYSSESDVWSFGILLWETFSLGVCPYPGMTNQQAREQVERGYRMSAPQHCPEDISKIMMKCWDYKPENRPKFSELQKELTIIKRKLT

| SMILES | GI50 ([16]; 72 hours) [nM] | pIC50 [17] | pIC50 [18] | in vivo half-life [19] | Glutathione Conj Rate [24] [nmol/min] | pIC50 [25] | pIC50 [26] | pIC50 [27] | other results |
| --- | --- | --- | --- | --- | --- | --- | --- | --- | --- |
| C=CC(=O)N[C@H]1CC[C@@H](n2nc(-c3ccc(Oc4ccccc4)cc3)c3c(N)ncnc32)CC1 [Compound 9] | 11 |  |  |  |  |  |  |  | pIC50 [1]: 9.40; pIC50 [2]: 9.70; pIC50 [3]: 5.48; pIC50 [4]: 8.92; paw inflammation [5]: reduced the increase in paw inflammation; pIC50 [6]: 8.48; pIC50 [7]: 8.15; pIC50 [8]: 8.49; pIC50 [9]: < 5.00; pIC50 [10]: 6.97; pIC50 [11]: 8.62; pIC50 [12]: 7.84; pIC50 [13]: 5.81; pIC50 [14]: 7.49; pIC50 [15]: 9.10 |
| CN(C)C/C=C/C(=O)N[C@H]1CC[C@@H](n2nc(-c3ccc(Oc4ccccc4)cc3)c3c(N)ncnc32)CC1 [Compound 8, (E)-N-((1s,4s)-4-(4-amino-3-(4-phenoxyphenyl)-1H-pyrazolo[3,4-d]pyrimidin-1-yl)cyclohexyl)-4-(dimethylamino)but-2-enamide] |  | 8.85 | 7.08 | significantly longer in vivo half-life |  |  |  |  |  |
| CN(C)C/C=C/C(=O)N1CCC[C@@H](n2nc(-c3ccc(Oc4ccccc4)cc3)c3c(N)ncnc32)C1 [Compound 2] | 320 | 8.96 | 7.31 |  |  |  |  |  | potency and selectivity in kinase panel [20]: highly potent and selective inhibitor |
| Nc1ncnc2c1c(-c1ccc(Oc3ccccc3)cc1)nn2[C@@H]1CCCCN1C(=O)/C=C/c1c[nH]cn1 [Compound 4] |  | 7.65 |  |  |  |  |  |  | inhibition of pERK under BCR cross-linking [21]: overcomes inhibition of pERK; time to reduced Egr-1 expression [22]: ≤ 1 h; maximal downregulation of Egr-1 expression ([22]; achieved by 4 hr): 10 fold; pIC50 [23]: > 8.00 |
| CN(C)C/C=C/C(=O)N1CCC[C@H]1Cn1nc(-c2ccc(Oc3ccccc3)cc2)c2c(N)ncnc21 [Compound 12, (E)-1-((S)-2-((4-amino-3-(4-phenoxyphenyl)-1H-pyrazolo[3,4-d]pyrimidin-1-yl)methyl)pyrolidin-1-yl)-4-(dimethylamino)but-2-en-1-one] | > 10000 | 8.88 | 6.16 | short half-life in vivo | 0.004361 | < 5.00 | 8.22 | 4.84 |  |
| CN(C)C/C=C/C(=O)N1CCC(n2nc(-c3ccc(Oc4ccccc4)cc3)c3c(N)ncnc32)CC1 [Compound 7, (E)-1-(4-(4-amino-3-(4-phenoxyphenyl)-1H-pyrazolo[3,4-d]pyrimidin-1-yl)piperidin-1-yl)-4-(dimethylamino)but-2-en-1-one] |  | 8.20 | 6.57 | significantly longer in vivo half-life | 0.01 | < 5.00 | 8.59 | 5.21 | GI50 ([16]; Homo sapiens, DOHH-2, 72 hours): 317 nM |
